{
  "source": "patent US20240165280A1",
  "about": "“METHODS FOR TREATMENT OF CANCERS” (Fusion Pharmaceuticals Inc., priority 2021, published 2024)",
  "key": {"HT-29 xenograft tumors": {"test_system": "HT-29 xenograft tumors", "assay": "Therapy study of [^177Lu]-3BP-227 and [^225Ac]-3BP-227 in CD-1 Nude mice bearing HT-29 xenograft tumors", "format": "in vivo", "settings": "for tumor growth inhibition relative to controls: single i.v. dose 4.5 mCi per mouse (8,325 MBq/kg), HT-29 xenografts, monitored 34 days", "description": "(§1) For therapeutic efficacy studies, single doses of 3,885-8,325 MBq/kg of [^177Lu]-3BP-227 (2,100-4,500 μCO or 1.85-5.55 MBq/kg of [^225Ac]-3BP-227 (1-3 μCO were administered to animals bearing HT29 xenografts (average tumor volume=212±46 mm^3), and tumor growth was monitored for 77 days. Mice in the control group were administered vehicle alone (10% ethanol in PBS). Study endpoints included tumor volume measurement and/or impact to animal health status.\nA therapy efficacy study of [^177Lu]-3BP-227 and [^225Ac]-3BP-227 was conducted in mice comprising the following: • 1. 30 CD-1 Nude mice (5-6 week-old females; Charles River Laboratories) bearing subcutaneous HT-29 (ATCC #HTB-38; colorectal adenocarcinoma) tumor xenografts distributed amongst 5 groups (n=6). There were two groups each treated with [^177Lu]-3BP-227 or [^225Ac]-3BP-227 and 1 control group (below). • 2. Target dose of radioactivity was 2.1 or 4.5 mCi of [^177Lu]-3BP-227 per mouse, or 1 or 3 μCi of [^225Ac]-3BP-227 per mouse, for radiotherapy groups. • 3. Mice in the control group were administered vehicle alone (10% ethanol in PBS). • 4. For all groups, tumor size and mouse weight were monitored for 34-77 days. Relative tumor volume, relative mouse weight, and tumor regression relative to control were also calculated.\nPerform an in vivo therapy study to determine the efficacy of [^177Lu]-3BP-227 and [^225Ac]-3BP-227, for the treatment of subcutaneous HT-29 xenograft tumors in nude mice.\nGroups of CD-1 Nude female mice (five groups; n=6 each, 30 total) will be administered radiolabelled test articles via intravenous injection once.\n[^177Lu]-3BP-227 will be dissolved in PBS containing 10% ethanol and prepared at a concentration of about 13 mCi/mL and about 25 mCi/mL. [^177Lu]-3BP-227 compounds would be administered (in 200 μL) at a dose of 2.1 mCi (about 13 mCi/mL stock) or 4.5 mCi (about 25 mCi/mL stock) to two groups of animals (n=12 total). [^225Ac]-3BP-227 will be dissolved in PBS containing 10% ethanol and prepared at a concentration of 5 μCi/mL and 15 μCi/mL. [^225Ac]-3BP-227 compounds will be administered (in 200 μL) at a dose of 1 μCi (5 μCi/ml stock) or 3 μCi (15 μCi/mL stock) to two groups of animals (n=12 total). […] The length (L) and width (W) of the tumor will be measured three times a week up to day 28, and the tumor volume will be calculated as per Section 13, Data Calculations and Statistical Analysis. […]\n1. Tumor volume is calculated according to the formula: TV=(L×W^2)×0.52, where L is the longest diameter (length) of the tumor and W is the shortest diameter (width) of the tumor. Tumor volume at day n is expressed as relative tumor volume (RTV) according to the following formula: RTV=TVn/TV0, where TVn is the tumor volume at day n, and TV0 is the tumor volume at day 0. […]"}, "[1]": {"assay": "Tolerability (mouse weight, health status) in the therapy study", "format": "in vivo, CD-1 Nude mice", "description": "as §1\nA therapy efficacy study of [^177Lu]-3BP-227 and [^225Ac]-3BP-227 was conducted in mice comprising the following: • 1. […] Target dose of radioactivity was 2.1 or 4.5 mCi of [^177Lu]-3BP-227 per mouse, or 1 or 3 μCi of [^225Ac]-3BP-227 per mouse, for radiotherapy groups. • 3. […] For all groups, tumor size and mouse weight were monitored for 34-77 days. Relative tumor volume, relative mouse weight, and tumor regression relative to control were also calculated.\n[^177Lu]-3BP-227 will be dissolved in PBS containing 10% ethanol and prepared at a concentration of about 13 mCi/mL and about 25 mCi/mL. […] The length (L) and width (W) of the tumor will be measured three times a week up to day 28, and the tumor volume will be calculated as per Section 13, Data Calculations and Statistical Analysis. […]"}, "HT-29 xenografts [2]": {"test_system": "HT-29 xenografts", "assay": "Earlier [^177Lu]-3BP-227 therapy study (Study 1), HT-29 xenografts in nude mice", "format": "in vivo"}, "HT-29 xenografts [3]": {"test_system": "HT-29 xenografts", "assay": "Earlier [^177Lu]-3BP-227 therapy study (Study 2), HT-29 xenografts", "format": "in vivo, nude mice", "settings": "4.5 mCi per mouse, tumor volume about 450 mm^3 at injection"}, "[4]": {"test_system": "NTSR1-expressing HT-29 xenograft tumors", "assay": "Uptake and persistence in NTSR1-expressing HT-29 xenograft tumors", "format": "in vivo", "settings": "NTSR1-expressing HT-29 xenograft tumors in Nude mice", "source_text": "(§2) The compounds to be evaluated are [^177Lu]-3BP-227 and [^225Ac]-3BP-227, which are the ^177Lu and ^225Ac radiolabelled versions, respectively, of the compound of Formula I (also referred as 3BP-227). NTSR1 is overexpressed in several types of cancer, e.g., pancreatic ductal adenocarcinoma (PDAC), Ewing's sarcoma and prostate cancer, but it is rarely expressed in normal tissues."}, "293 tumor xenografts": {"test_system": "293 tumor xenografts", "assay": "Uptake into 293 tumor xenografts, which do not express NTSR1", "format": "in vivo", "settings": "293 tumor xenografts (no NTSR1 expression)", "source_text": "as §2"}, "[5]": {"assay": "Acute toxicity in mice with [^177Lu]-3BP-227 therapy (earlier studies)", "format": "in vivo", "settings": "earlier [^177Lu]-3BP-227 therapy studies in mice"}},
  "note": "“Also recorded” adds a separate entry of the source.",
  "data": [
    {"smiles": "COc1cccc(OC)c1-c1cc(C(=O)NC2(C(=O)O)C3CC4CC(C3)CC2C4)nn1-c1ccc(C(=O)N(C)CCCN(C)CCCN(C)C(=O)CN2CCN(CC(=O)[O-])CCN(CC(=O)[O-])CCN(CC(=O)[O-])CC2)cc1C(C)C.[177Lu+3]", "note": "(stereo not shown) [[^177Lu]-3BP-227]", "values": [
      {"measurement": "frequency of significant tumor regrowth", "setting": "HT-29 xenograft tumors; 4.5 mCi [^177Lu]-3BP-227 versus 1 μCi [^225Ac]-3BP-227 group", "result": "significant tumor regrowth was more frequent"},
      {"measurement": "duration of tumor growth inhibition relative to controls", "setting": "HT-29 xenograft tumors; 4.5 mCi group, whole monitoring period", "result": 34, "unit": "days"},
      {"measurement": "tumor growth inhibition relative to controls", "setting": "HT-29 xenograft tumors", "result": "inhibition in the growth of tumors; also recorded: significant and durable tumor growth inhibition"},
      {"measurement": "tumor growth inhibition relative to controls", "setting": "HT-29 xenograft tumors; listed as [^177Lu]3BP-227", "result": "efficacious at suppressing tumor growth"},
      {"measurement": "weight gain compared with vehicle control", "setting": "[1]; 2.1 and 4.5 mCi groups, 34 days", "result": "indistinguishable weight gain"},
      {"measurement": "treatment-related toxicities", "setting": "[1]; all dose groups of the studies", "result": "no treatment-related toxicities observed"},
      {"measurement": "inhibition of tumor growth", "setting": "HT-29 xenografts [2]; about 2.1 mCi per mouse", "result": "somewhat inhibited tumor growth"},
      {"measurement": "suppression of tumor growth", "setting": "HT-29 xenografts [2]; about 4.5 mCi per mouse, tumor volume about 200 mm^3 at injection", "result": "effective as a therapy for suppressing tumor growth"},
      {"measurement": "duration of tumor growth suppression", "setting": "HT-29 xenografts [2]; particularly evident at about 4.5 mCi per mouse", "result": "at least 60 days"},
      {"measurement": "suppression of HT-29 tumor growth", "setting": "HT-29 xenografts [3]", "result": "not efficacious at suppressing HT-29 tumor growth"},
      {"measurement": "tumor uptake and persistence", "setting": "[4]", "result": "good uptake and persistence"},
      {"measurement": "tumor uptake", "setting": "293 tumor xenografts", "result": "minimal uptake"},
      {"measurement": "acute toxicity", "setting": "[5]", "result": "no observed acute toxicity"}
    ]}
  ]
}
